Experimental findings from US6383520B1, “Fine powder of L-α-aminoadipic acid derivative, oral solid preparations containing the same, and method for treatment of bulk powders” (Chugai Seiyaku Kabushiki Kaisha, priority 1998, dated 2002) are described below.

Series [1] can be described thus: Average particle diameter by dry particle size distribution measurement (AEROSIZER mach 2). The note with it: dry particle size distribution measurement after grinding. Type of series: physicochemical. From the text:
The average particle diameter of the finely ground powder of MX-68 in the present invention can be measured by using, for example, a dry particle size distribution measurement apparatus (AEROSIZER mach 2, manufactured by AMHERST PROCESS INSTRUMENTS, INC) as will be described in Example 1 hereinafter. The finely ground powder of MX-68 according to the present invention has an average particle diameter of from 5 to 25 μm. When the average particle diameter is less than 5 μm, the finely ground powder is liable to be charged with static electricity and thus there arises a high possibility of dusting and adhesion. When the average particle diameter exceeds 25 μm, on the other hand, it is feared that the solubility and/or content uniformity of MX-68 are adversely affected. It is preferable that the average particle diameter ranges from 8 to 15 μm, still preferably from 9 to 11 μm.
A crystalline bulk powder of MX-68 obtained by the method described in Japanese Laid-Open Patent Publication No. 6-239863(A)) (manufactured by Chugai Pharmaceutical Co., Ltd.) was manually ground in an agate mortar. Separately, the same bulk powder was ground with a centrifugal grinder (ZM-1, manufactured by Nippon Seiki Seisakusho) by using a screen (pore size: 0.2 mm) at 20,000 rpm. Separately, the same bulk powder was ground with a micro-labo jet mill (A-O Jet Mill, manufactured by Seishin Kigyo). The particle diameter of each finely ground powder of MX-68 thus obtained was measured by using a dry particle size distribution measurement apparatus (AEROSIZER mach 2, manufactured by AMHERST PROCESS INSTRUMENTS, INC) and the average particle diameter was determined. As a result, the average particle diameter could be controlled to 9 to 11 μm by each grinding method (Table 1).

Series [2] in a line: Thermal analysis: differential scanning calorimetry, endotherm. Type of series: physicochemical. As to conditions: DSC; for endotherm compared with the unground bulk powder (in words): before and after the grinding treatment; for Endotherm: temperature rise 5° C./min. The method, then:
The finely ground powder of MX-68 sustaining the crystallinity according to the present invention means a finely ground powder of MX-68 which has, both before and after the grinding treatment, parts showing polarization when observed under a polarization microscope, and has an endotherm of from 25 to 50 mJ/mg, preferably from […] at an endothermic peak appearing, for example, at 185 to 195° C. in the differential scanning calorimetry as will be described Example 2.
A crystalline bulk powder of MX-68 obtained by the method described in Japanese Laid-Open Patent Publication No. 6-239863(A)) (manufactured by Chugai Pharmaceutical Co., Ltd.) and the finely ground powders of MX-68 obtained by the grinding methods described in Example 1 were thermally analyzed to thereby determine the differential scanning calories (DSC, temperature rise: 5° C./min). Then the endotherm (caused by the endothermic reaction occurring in association with the conversion of crystalline particles in the crystalline bulk powder into the amorphous state) was calculated.
(In general: In DSC, transitions show as peaks or steps in heat flow.)

The nature of series [3]: Storage stability (60° C., 2 weeks). Type of series: physicochemical. As to conditions: for storage stability after the grinding treatment (in words): 60° C.; for Residual ratio: storage 60° C. The method, then: A comparison was made on the storage stability (60° C., 2 weeks) of the crystalline bulk powder of MX-68 obtained by the method described in Japanese Laid-Open Patent Publication No. 6-239863(A)) (manufactured by Chugai Pharmaceutical Co., Ltd.), the mortar-ground bulk powder and the centrifugal-ground bulk powder obtained in Example 1.

Series [4] in a line: Dissolution test, method 2 (paddle method), Japanese Pharmacopoeia. Type of series: physicochemical. The note with it: compared with the amorphous bulk powder. The text has this: Tablets of the following formula were produced by using the crystalline bulk powder of MX-68 obtained by the method described in Japanese Laid-Open Patent Publication No. 6-239863(A)) (manufactured by Chugai Pharmaceutical Co., Ltd.), an amorphous bulk powder and the centrifugal.-ground bulk powder obtained in Example 1. More particularly, MX-68, lactose, crystalline cellulose and croscarmellose sodium were dry-mixed. After adding water, the mixture was kneaded and granulated. Then the granulated matter was dried at 50° C., mixed with magnesium stearate, and press molded to give tablets of 6 mm in diameter. In accordance with the method 2 (paddle method) of the dissolution test as specified in Japanese Pharmacopoeia, these tablets were subjected to the dissolution test using 500 ml of JP official solution 1 at 37° C.

Series [5] can be described thus: Pharmacokinetics after oral administration to dogs, MX-68 concentration in the blood. Type of series: in vivo. As to conditions: 1 mg/kg.

`Nc1nc(N)c2nc(CN3CCSc4cc(C(=O)N[C@@H](CCCC(=O)O)C(=O)O)ccc43)cnc2n1` [Centrifugal-ground bulk powder, N-(1-((2,4-diamino-6-pteridinyl)methyl)-3,4-dihydro-2H-1,4-benzothiazine-7-carbonyl)L-α-aminoadipic acid] gave an Average particle diameter in series [1] of 11.4 μm. For the same molecule, in series [2], the “endotherm compared with the unground bulk powder (in words)” value is recorded as “no change in the endotherm” and the Endotherm was found to be 32.8 mJ/mg. For the same molecule, in series [3], the “storage stability after the grinding treatment (in words)” value is recorded as “sustained stability comparable to the unground bulk powder” and the Residual ratio was determined as 96.3%.
In series [1], `Nc1nc(N)c2nc(CN3CCSc4cc(C(=O)N[C@@H](CCCC(=O)O)C(=O)O)ccc43)cnc2n1` [Jet mill-ground bulk powder, N-(1-((2,4-diamino-6-pteridinyl)methyl)-3,4-dihydro-2H-1,4-benzothiazine-7-carbonyl)L-α-aminoadipic acid] returned an Average particle diameter of 10.7 μm. For the same molecule, in series [2], the “endotherm compared with the unground bulk powder (in words)” value is “no change in the endotherm” and the Endotherm came to 33.2 mJ/mg.
In turn, `Nc1nc(N)c2nc(CN3CCSc4cc(C(=O)N[C@@H](CCCC(=O)O)C(=O)O)ccc43)cnc2n1` [Mortar-ground bulk powder] yielded an Average particle diameter in series [1] of 9.3 μm. In series [2], the “endotherm compared with the unground bulk powder (in words)” value is “a decrease in the endotherm” and the Endotherm is listed as 22.3 mJ/mg. Further, in series [3], the “storage stability after the grinding treatment (in words)” value is on record as “a decrease in stability”. For the same molecule, in series [3] (listed as Motor-ground bulk powder), the Residual ratio was determined as 90.9%.
For the molecule `Nc1nc(N)c2nc(CN3CCSc4cc(C(=O)N[C@@H](CCCC(=O)O)C(=O)O)ccc43)cnc2n1` [Unground bulk powder], the “solution speed (in words)” value in series [4] is “lower solution speed”. Besides, the “bioavailability (in words)” value in series [5] (compared with the amorphous bulk powder) is listed as “lower bioavailability”. Further, the Endotherm in series [2] worked out at 33.5 mJ/mg. Also, the Residual ratio in series [3] is 95.3%.
As to `Nc1nc(N)c2nc(CN3CCSc4cc(C(=O)N[C@@H](CCCC(=O)O)C(=O)O)ccc43)cnc2n1` [amorphous bulk MX-68 powder, N-(1-((2,4-diamino-6-pteridinyl)methyl)-3,4-dihydro-2H-1,4-benzothiazine-7-carbonyl)L-α-aminoadipic acid], in series [5] (compared with the unground bulk powder), the “absorbability (in words)” value is “higher absorbability”.
